According to ChEMBL document CHEMBL1154296, “Potent inhibitors of beta-tryptase and human leukocyte elastase based on the MCoTI-II scaffold” (J Med Chem, 2009):
Starred links: 1 amine or outer side, 2 acyl side, 3 side chain; linkers in the order of their positions; H or OH if unused. Positions of bridges follow the written chain, without caps; N, C: chain ends. Non-standard residues stand in square brackets, D forms with d. Residues, ends and D or L forms follow the SMILES beside them. X2 = N=C(N)NCCC[C@@H](C(=O)[C@H](CCC(N)=O)N[*:1])C(=O)[*:2]; X3 = O=C(NC(=O)[*:2])[C@H](CO)N[*:1]

Experiments:
[1] = Inhibition of trypsin by substrate hydrolysis based fluorescence assay
[2] = Inhibition of tryptase by substrate hydrolysis based fluorescence assay

Row | Structure (SMILES) | Ki [1] [µM] | Ki [2] [µM]
1 | CC[C@H](C)[C@@H]1NC(=O)[C@H](CCCNC(=N)N)NC(=O)[C@@H]2CCCN2C(=O)[C@@H]2CSSC[C@@H]3NC(=O)CNC(=O)[C@H](C)NC(=O)[C@H](CC(C)C)NC(=O)[C@@H]4CSSC[C@H](NC(=O)[C@H](Cc5ccc(O)cc5)NC(=O)CNC(=O)[C@H](CC(N)=O)NC(=O)CNC(=O)[C@H](CCCNC(=N)N)NC(=O)[C@H](CSSC[C@H](NC(=O)[C@@H](CCCNC(=N)N)C(=O)[C@H](CCC(N)=O)NC(=O)[C@H](CC(C)C)NC1=O)C(=O)N[C@@H](CCCNC(=N)N)C(=O)N[C@@H](CCCNC(=N)N)C(=O)N[C@@H](CC(=O)O)C(=O)N[C@@H](CO)C(=O)N[C@@H](CC(=O)O)C(=O)N4)NC(=O)[C@H](CC(C)C)NC3=O)C(=O)NCC(=O)N[C@@H](CO)C(=O)NCC(=O)N[C@@H](C(C)C)C(=O)N2 (cyclo(AGCLCRGNGYCGSGVCPRIL[X2]CRRDSDCL); disulfide 3-16, 5-22, 11-28) | 0.0088 | 0.028
2 | CC[C@H](C)[C@@H]1NC(=O)[C@H](CCCCN)NC(=O)[C@@H]2CCCN2C(=O)[C@@H](NC(=O)[C@@H](N)C(C)C)CSSC[C@@H]2NC(=O)CNC(=O)[C@H](C)NC(=O)[C@H](CC(C)C)NC(=O)[C@@H]3CSSC[C@@H](C(=O)NCC(=O)N[C@@H](CO)C(=O)NCC(=O)O)NC(=O)[C@H](Cc4ccc(O)cc4)NC(=O)CNC(=O)[C@H](CC(N)=O)NC(=O)CNC(=O)[C@H](CCCNC(=N)N)NC(=O)[C@H](CSSC[C@H](NC(=O)[C@@H](CCCNC(=N)N)C(=O)[C@H](CCC(N)=O)NC(=O)[C@H](CC(C)C)NC1=O)C(=O)N[C@@H](CCCNC(=N)N)C(=O)N[C@@H](CCCNC(=N)N)C(=O)N[C@@H](CC(=O)O)C(=O)N[C@@H](CO)C(=O)N[C@@H](CC(=O)O)C(=O)N3)NC(=O)[C@H](CC(C)C)NC2=O (H-VCPKIL[X2]CRRDSDCLAGCLCRGNGYCGSG-OH; disulfide 2-18, 8-20, 14-26) | 0.099 | 0.11
3 | CC[C@H](C)[C@@H]1NC(=O)[C@@H]2CSSC[C@@H]3NC(=O)[C@H](C(C)C)NC(=O)CNC(=O)NC(=O)[C@H](CO)NC(=O)CNC(=O)[C@H](CO)NC(=O)CNC(=O)[C@@H]4CSSC[C@H](NC(=O)[C@H](CC(=O)O)NC(=O)[C@H](CO)NC(=O)[C@H](CC(=O)O)NC(=O)[C@H](CCCNC(=N)N)NC(=O)[C@H](CCCNC(=N)N)NC(=O)[C@H](CSSC[C@H](NC1=O)C(=O)N[C@@H](CCCNC(=N)N)C(=O)NCC(=O)N[C@@H](CC(N)=O)C(=O)NCC(=O)N[C@@H](Cc1ccc(O)cc1)C(=O)N4)NC(=O)[C@@H](CCCNC(=N)N)C(=O)[C@H](CCC(N)=O)NC(=O)[C@H](CC(C)C)NC(=O)[C@H]([C@@H](C)CC)NC(=O)[C@H](CCCCN)NC(=O)[C@@H]1CCCN1C3=O)C(=O)N1CCC[C@H]1C(=O)NCC(=O)N[C@@H](C)C(=O)N2 (cyclo(ACICRGNGYCGSG[X3]GVCPKIL[X2]CRRDSDCPG); disulfide 2-17, 4-23, 10-29) | 0.0043 | 0.6
4 | CC[C@H](C)[C@@H]1NC(=O)[C@H](CCCCN)NC(=O)[C@@H]2CCCN2C(=O)[C@@H]2CSSC[C@@H]3NC(=O)CNC(=O)[C@H](C)NC(=O)[C@H](CC(C)C)NC(=O)[C@@H]4CSSC[C@H](NC(=O)[C@H](Cc5ccc(O)cc5)NC(=O)CNC(=O)[C@H](CC(N)=O)NC(=O)CNC(=O)[C@H](CCCNC(=N)N)NC(=O)[C@H](CSSC[C@H](NC(=O)[C@@H](CCCNC(=N)N)C(=O)[C@H](CCC(N)=O)NC(=O)[C@H](CC(C)C)NC1=O)C(=O)N[C@@H](CCCNC(=N)N)C(=O)N[C@@H](CCCNC(=N)N)C(=O)N[C@@H](CC(=O)O)C(=O)N[C@@H](CO)C(=O)N[C@@H](CC(=O)O)C(=O)N4)NC(=O)[C@H](CC(C)C)NC3=O)C(=O)NCC(=O)N[C@@H](CO)C(=O)NCC(=O)N[C@@H](C(C)C)C(=O)N2 (cyclo(AGCLCRGNGYCGSGVCPKIL[X2]CRRDSDCL); disulfide 3-16, 5-22, 11-28) | 0.048 | 0.033
